Test results: patent publication US20220299513A1, “IRF2 AS A PROGNOSTIC BIOMARKER AND TARGET FOR AUGMENTING IMMUNOTHERAPY” (University of Massachusetts, priority 2019, published 2022)

How the values were obtained:
[1] = tested on: TAP2 mRNA in F221 murine sarcoma cells; experiment: TAP2 mRNA levels by qPCR in drug-treated F221 cells; type: cell-based; conditions: Vorinostat 1 uM or 5 uM, Decitabine 5 uM, 24 hrs, vs DMSO control
Method: (§1) FIGS. 13A-B. (A) IRF2 & TAP2 mRNA levels, and MHC I surface protein levels in […] murine sarcoma cells treated with Vorinostat (1 uM or 5 uM), Decitabine (5 uM), or control diluent (DMSO) with no drug; (B) surface expression of MHC I on […] MCA-sarcoma cells treated with Vorinostat (5 uM) and/or Decitabine (5 uM). RNA was extracted from cell lines using the RNeasy kit (Qiagen) or from formalin-fixed paraffin-embedded non-small cell lung cancers using the RNeasy FFPE kit (Qiagen) and reverse transcribed to cDNA using EcoDry pre-mix random hexamers (Clontech). 50 ng cDNA were used per well (done in triplicate) with indicated TaqMan probes (Applied Biosystems), according to the manufacturer's instructions. The TaqMan probes used were as follows: We tested two epigenetic modifiers on an IRF2low, MHC I low murine cancer cell line ([…] MCA-sarcoma). […] murine sarcoma cells were treated with Vorinostat (1 uM or 5 uM), Decitabine (5 uM), or control diluent (DMSO) with no drug for 24 hrs and then assayed for IRF2 and TAP2 mRNA levels by qPCR and MHC I protein levels by flow cytometry.

[2] = tested on: surface MHC I (H-2Kb) on F221 MCA-sarcoma cells; experiment: Surface MHC I protein levels by flow cytometry in drug-treated F221 cells; type: cell-based; conditions: F221 murine sarcoma cells; Vorinostat 1 uM or 5 uM, Decitabine 5 uM; 24 hrs; vs DMSO control
Excerpt: Where indicated, mouse cells were blocked with 2.4G2 and stained for surface MHC class I levels with anti-K^b-APC (eBioscience, AF6-88.5.5.3), MHC class II levels with anti-I^A/I^E-PECy7 (BioLegend, M5/114.15.2), PD-L1 levels with anti-PD-L1-PE (BioLegend, 10F.9G2), or with isotype controls (eBioscience mouse IgG2a-APC eBM2a, eBioscience rat IgG2b κ-PE eB149) at 1:200 dilutions.
We tested two epigenetic modifiers on an IRF2low, MHC I low murine cancer cell line (F221 MCA-sarcoma). F221 murine sarcoma cells were treated with Vorinostat (1 uM or 5 uM), Decitabine (5 uM), or control diluent (DMSO) with no drug for 24 hrs and then assayed for IRF2 and TAP2 mRNA levels by qPCR and MHC I protein levels by flow cytometry.
In addition, F221 MCA-sarcoma cells were treated with a combination of Vorinostat (5 uM) and/or Decitabine (5 uM) for 24 hrs and then surface expression of MEW I molecules were quantified by flow cytometry.

[3] = tested on: IRF2 mRNA in F221 murine sarcoma cells; experiment: IRF2 mRNA levels by qPCR in drug-treated F221 cells; type: cell-based; conditions: Vorinostat 1 uM or 5 uM, Decitabine 5 uM, 24 hrs, vs DMSO control
Method: as §1

[4] = tested on: surface MHC-I on IRF2-KO DC3.2; experiment: Surface MHC-I on IRF2-KO DC3.2 after interferon stimulation (flow cytometry); type: cell-based, mouse
Method: (§2) FIGS. 5A-E. IRF2-IRF1 balance. (A) Normalized MFI of surface MHC I and PD-L1 levels on the indicated single or double (IRF1+IRF2, double knock out (DKO)) DC3.2 knockout lines after overnight incubation with either media alone or 2 ng/mL IFNγ; bars represent mean+SEM (N≥3); (B) Western blot for IRF1 and IRF2 (and β-actin as loading control) in the DC3.2 knockout lines in the absence or presence of 2 ng/mL IFNγ for the durations indicated; (C) ChIP-qPCR of DC3.2 WT cells stimulated with ±2 ng/mL IFNγ for 2 hrs for TAP2 (top), ERAP1 (middle), or PD-L1 (bottom) DNA with rabbit anti-IRF2 IgG, rabbit anti-IRF1 IgG, or normal rabbit IgG (control). Bars represent mean +SEM fold enrichment (2^^-ΔCt) over the normal rabbit IgG control IP (N=2); (d, e) Heatmap of genes differentially expressed between the DC knockout lines (D) at baseline or (E) after stimulation with ±2 ng/mL IFNγ for 2 hrs. For clarity, only a few genes are shown. Statistical analysis by two-tailed ratio paired t-tests. *p<0.05, **p<0.01, ***p<0.001, ****p<0.0001, ns=not significant.
FIGS. 10A-B. (A) Normalized MFI of surface MHC I and PD-L1 levels on DC3.2 stable knockout lines after overnight incubation with 5,000 U/mL IFNα; bars represent mean+SEM (N=3). Statistical analysis by two-tailed ratio paired t-tests. […]

[5] = tested on: PD-L1 promoter in DC3.2 WT cells; experiment: ChIP-qPCR of IRF1/IRF2 binding to the PD-L1 promoter after IFNγ stimulation; type: cell-based, mouse; conditions: 2 ng/mL IFNγ for 2 hrs
Method: as §2
It is well-established that IRF1 can promote IFNγ-inducible activation of PD-L1^27,28. […]
ChIP procedure generally followed the Thermo Fisher ChIP protocol. […] Chromatin was sheared by sonication for 20 min and fragment size (˜300 bp) was determined by gel electrophoresis. […]

[6] = tested on: surface MHC-I on A549 cells; experiment: Surface MHC-I on IFNγ-stimulated A549 (flow cytometry); type: cell-based, human; conditions: overnight IFNγ stimulation
Excerpt: (§3) FIGS. 6A-J. IRF2 and cancer. (A) Differential IRF2 expression in tumor and normal tissue from patients with the indicated cancer types (TCGA abbreviations), as queried from TIMER^29; (B) IRF2 mRNA expression in patient NSCLC specimens scored as PD-L1 low (1-50%) or high (>50%) by immunohistochemistry. IRF2 mRNA expression was normalized to GAPDH mRNA expression in each lung specimen and then IRF2 expression across specimens was compared by calculating fold changes over the lowest IRF2-expressing specimen, which was set equal to 1. Statistical analysis by Mann-Whitney U test, **p<0.01; (C) TAP2 (top) and ERAP1 (bottom) mRNA correlations with IRF2 mRNA in NSCLC specimens. Linear regression models shown with R^2 for goodness of fit. (D-E) Geometric MFI of surface MHC I (left) and PD-L1 (right) on (D) unstimulated or (E) overnight IFNγ-stimulated A549 lines knocked out for IRF2 (“IRF2 KO”) or control (“WT”) or overexpressing IRF2 or empty vector (EV) as control. Bars represent mean +SEM (N=3). Statistical analysis by two-tailed ratio paired t-tests. *p<0.05, **p<0.01, ***p<0.001; (F) Geometric MFI of surface MHC-I and PD-L1 on unstimulated or IFNγ-stimulated human breast carcinoma (BT20 and MCF7) lines knocked out for IRF2 (“IRF2 KO”) or control (“WT”). […] After 4 hours, specific killing was quantified by flow cytometry. […]

[7] = tested on: surface PD-L1 on A549 cells; experiment: Surface PD-L1 on IFNγ-stimulated A549 (flow cytometry); type: cell-based, human; conditions: overnight IFNγ stimulation
Excerpt: as §3

## O=C(CCCCCCC(=O)Nc1ccccc1)NO [Vorinostat, Suberoylanilide hydroxamic acid]
[1]
  mRNA for IRF2's target gene, TAP2: increased
[2]
  surface MHC I (H-2Kb) protein levels: increased
[3]
  expression of IRF2 mRNA: increased

## IFNα
[4]; overnight incubation with 5,000 U/mL IFNα
  surface MHC-I expression in the IRF2-KO DC3.2: restored

## IFNγ: interferon gamma used to stimulate cells (mouse IFNγ 2 ng/mL for DC3.2)
[5]
  IRF1 binding to the PD-L1 promoter: increased IRF1 binding
  IRF2 binding to the PD-L1 promoter: decreased IRF2 binding
[6]
  surface MHC-I expression: augmented
[7]
  surface PD-L1 expression: augmented
[4]; overnight incubation with 2 ng/mL IFNγ
  surface MHC-I expression in the IRF2-KO DC3.2: restored
